Data: US8299040B2, “Methods for treating cancer targeting transglutaminase” (Board of Regents, The University of Texas System, priority 2006, dated 2012)

Experiments:
TG2 [1] = experiment: TG2 protein expression in MDA-Panc28 cells (western blot); type: cell-based, human; conditions: 48 h
Protocol: (A) Cells at 80% confluence were treated with 1 μM, 2 μM or 4 μM rottlerin. After 48 h of treatment, the cells were lysed and cell lysates were fractionated by sodium dodecyl sulfate polyacrylamide gel electrophoresis (SDS-PAGE) and transferred onto nitrocellulose membrane to determine PKCδ and TG2 protein expression by western blot analysis. The membrane was stripped and reprobed with an anti-β-actin antibody to confirm equal loading of protein in each lane. (B) Total RNA was extracted, and transcript levels of TG2 and β-actin were determined by RT-PCR analysis as described in Materials and Methods. Relative expression levels were determined by densitometry as compared with β-actin. Experiments were repeated at least three times.
(§1) After treatment, the cells were collected and centrifuged, and whole-cell lysates were obtained using a lysis buffer. Total protein concentration was determined using a DC protein assay kit (Bio-Rad, Hercules, Calif., USA). […] Mouse anti-β-actin and donkey anti-mouse secondary antibody were purchased from Sigma Chemical (St. Louis, Mo., USA) so that β-actin expression could be monitored to ensure equal loading of proteins. […] The blots were visualized with a Fluor Chem 8900 imager and quantified by a densitometer using the Alpha Imager application program (Alpha Innotech). […]

[2] = test system: MDA-Panc28, Capan-2, Bx-PC3, Panc1 and MIAPaCa cells; experiment: LC3-II accumulation (autophagy) in pancreatic cancer cell lines, western blot; type: cell-based, human; conditions: 4 μM for 48 h
Protocol: (§2) (A) A panel of pancreatic cancer cell lines including MDA-Panc28, Capan-2, Bx-PC3, Panc1 and MIAPaCa cells were treated with Rottlerin (4 μM) for 48 h for the detection of LC3-II and TG2 expression by western blot. (B) MCF-7 cell line was also tested for LC3-II and TG2 expression by western blot. (C) Expression of TG2 in MDA-Panc28 cells was determined upon exposure to different treatments (D) Detection of autophagolysosomes; MDA-Panc28 cells were treated with either control siRNA, Rottlerin or TG2 siRNA for 48 h. Photomicrographs show morphological changes of the cells by phase contrast microscopy (left panels); acridine orange staining of the acidic vesicular organelles by fluorescent microscopy (center panels) and the localization LC3-II at autophagosomes in cells after transfection with GFP-LC3 plasmid (right panels). […]
as §1

MDA-Panc28 cells = experiment: Apoptosis in MDA-Panc28 cells (sub-G1 FACS, PARP cleavage); type: cell-based, human
Protocol: PARP cleavage positive cell lysate was used as a positive control. (C) Morphological changes after treatment with rottlerin. Microphotographs were taken using a phase-contrast microscope (300× magnification). Left panel, untreated cells at 48 h of treatment; center panel, cells treated for 48 h, and right panel, cells treated for 96 h.

PKCδ = molecular target: T1, PKCδ (Homo sapiens, UniProt Q05655); experiment: PKCδ protein expression in MDA-Panc28 cells (western blot); type: cell-based; conditions: 48 h
T1 construct: endogenous in cells; host or cells: MDA-Panc28
T1 sequence (Q05655 whole entry): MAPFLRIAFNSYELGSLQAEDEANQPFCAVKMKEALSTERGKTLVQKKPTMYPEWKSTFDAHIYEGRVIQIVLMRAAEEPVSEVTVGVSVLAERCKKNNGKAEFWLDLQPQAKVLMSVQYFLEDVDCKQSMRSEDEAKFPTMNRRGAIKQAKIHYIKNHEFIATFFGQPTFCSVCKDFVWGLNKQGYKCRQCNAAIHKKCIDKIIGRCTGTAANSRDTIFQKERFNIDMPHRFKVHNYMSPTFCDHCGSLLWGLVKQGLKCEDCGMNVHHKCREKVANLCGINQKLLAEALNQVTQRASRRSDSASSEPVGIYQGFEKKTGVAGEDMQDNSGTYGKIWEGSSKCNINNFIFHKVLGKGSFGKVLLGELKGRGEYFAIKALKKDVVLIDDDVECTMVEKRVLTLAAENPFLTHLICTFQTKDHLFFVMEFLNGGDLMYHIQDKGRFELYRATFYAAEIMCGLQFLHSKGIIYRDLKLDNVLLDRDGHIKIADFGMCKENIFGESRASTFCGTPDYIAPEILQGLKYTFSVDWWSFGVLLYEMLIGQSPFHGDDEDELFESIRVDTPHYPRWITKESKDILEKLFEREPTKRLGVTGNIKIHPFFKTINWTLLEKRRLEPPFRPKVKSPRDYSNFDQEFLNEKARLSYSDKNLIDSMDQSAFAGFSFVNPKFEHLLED
Protocol: (A) Cells at 80% confluence were treated with 1 μM, 2 μM or 4 μM rottlerin. After 48 h of treatment, the cells were lysed and cell lysates were fractionated by sodium dodecyl sulfate polyacrylamide gel electrophoresis (SDS-PAGE) and transferred onto nitrocellulose membrane to determine PKCδ and TG2 protein expression by western blot analysis. […] Experiments were repeated at least three times.
After treatment, the cells were collected and centrifuged, and whole-cell lysates were obtained using a lysis buffer. Total protein concentration was determined using a DC protein assay kit (Bio-Rad, Hercules, Calif., USA). […] Aliquots containing 30 μg of total protein from each sample were subjected to sodium dodecyl sulfate-polyacrylamide gel electrophoresis (SDS-PAGE) with a 4-20% gradient and electrotransferred to nitrocellulose membranes. The membranes were blocked with 5% dry milk in tris-buffered saline-tween 20 (TBST), probed with primary antibodies diluted in TBST containing 2.5% dry milk and incubated at 4° C. overnight. […] Mouse anti-β-actin and donkey anti-mouse secondary antibody were purchased from Sigma Chemical (St. Louis, Mo., USA) so that β-actin expression could be monitored to ensure equal loading of proteins. […] The blots were visualized with a Fluor Chem 8900 imager and quantified by a densitometer using the Alpha Imager application program (Alpha Innotech). […]

mTOR = mTOR pathway phosphorylation in MDA-Panc28 cells (western blot); type: cell-based, human
Protocol: (A) Phosphorylated mTOR was detected after 48 h of treatment with various doses of rottlerin, cells were subjected to western blot analysis. Phosphorylation of mTOR was inhibited in a dose-dependent manner. (B) MDA-Panc28 cells were treated with a specific mTOR inhibitor, rapamycin (at either 20 nM or 100 nM), TG2 siRNA or left untreated.
as §1, with “USA). Rottlerin and mTOR inhibitor (rapamycin) were purchased from Calbiochem (La Jolla, Calif., USA). Aliquots containing 30 μg of total protein from each sample were subjected to sodium dodecyl sulfate-polyacrylamide gel electrophoresis (SDS-PAGE) with a 4-20% gradient and electrotransferred to nitrocellulose membranes.” for “USA).”

MCF-7 cells = experiment: LC3-II accumulation in TG2-negative MCF-7 cells; type: cell-based, human; conditions: MCF-7 (TG2-negative), optimal conditions
Protocol: as §2, §1

TG2 [3] = experiment: TG2 transcript level in MDA-Panc28 cells (RT-PCR); type: cell-based, human
Protocol: Cells were collected for isolation of total RNA. Total cellular RNA was isolated with Trizol reagent (Invitrogen/Life Technologies, Carlsbad, Calif., USA), and cDNA was obtained from 5 μg of total RNA using a Superscript II RT kit (Invitrogen/Life Technologies). Briefly, 5 μl of the total 20 μl of reverse-transcribed product was used for PCR in 1×PCR buffer containing 1.5 mM MgCl2, 250 μM dNTPs, 0.5 units of Taq polymerase (Invitrogen/Life Technologies), and 100 ng of TG2 primer (primer 1,5′-[…]-3′; primer II, 5′-[…] GAGCAGG-3′) or β-actin-specific primer (Sigma-Genosys, Houston, Tex., USA). Thirty cycles were used for PCR analysis. The reaction products were analyzed on a 2% agarose gel containing ethidium bromide, and cDNA synthesis was verified by detection of the β-actin transcript, which was used as an internal control.

TG2 [4] = experiment: TG2 expression in pancreatic cancer cell lines (western blot); type: cell-based, human; conditions: 4 μM for 48 h, all pancreatic cancer cell lines tested
Protocol: as §2, §1

Beclin 1 = Beclin 1 expression in MDA-Panc28 cells; type: cell-based, human; conditions: MDA-Panc28, data not shown

CC(=O)c1c(O)c(C)c(O)c(Cc2c(O)c3c(c(C(=O)/C=C/c4ccccc4)c2O)OC(C)(C)C=C3)c1O [rottlerin]
inhibition of TG2 protein expression (TG2 [1]; 1 μM): 44%
inhibition of TG2 protein expression (maximum) (TG2 [1]; 4 μM): 94%
endogenous LC3-II accumulation [2]: significant increase in endogenous LC3-II accumulation
apoptosis (accumulation in sub-G1 phase) (MDA-Panc28 cells; 4 μM for 48 h, FACS): failed to promote any apoptosis
PARP cleavage (MDA-Panc28 cells; Western blot): failed to show any poly ADP-ribose polymerase (PARP) cleavage
inhibition of PKCδ protein expression (PKCδ; 2 μM): 72%
inhibition of PKCδ protein expression (PKCδ; 4 μM): 94%
phosphorylated mTOR (p-mTOR) (mTOR; MDA-Panc28, 48 h): downregulated phosphorylated mTOR (p-mTOR)
p-p70S6K (mTOR; MDA-Panc28, data not shown): downregulated
LC3-II accumulation (MCF-7 cells): failed to produce any increase in LC3-II accumulation
effect on TG2 expression at the level of transcription (TG2 [3]): inhibitory effect
TG2 expression (TG2 [4]): parallel decrease in TG2 expression
Beclin 1 expression (Beclin 1): Expression levels did not change
